What all share (assay type): physicochemical
The nature of data set [1]: Antioxidant activity assessed as OH-induced DNA oxidation at 150 uM by TBARS method.
A short description of data set [2]: Antioxidant activity assessed as protection against Cu2+/GSH-induced DNA oxidation at 150 uM up to 180 mins by TBARS method. The following applies: 3 h.
Data set [3] in a line: Antioxidant activity assessed as inhibition time period for protection against AAPH-induced DNA oxidation at 37 degC by TBARS method.

SMILES strings stand for the structures.

The record followed here is ChEMBL document CHEMBL3352361, “Design and synthesis of coumarin-3-acylamino derivatives to scavenge radicals and to protect DNA” (Eur J Med Chem, 2014).

In the case of `COc1cc2cc(C(=O)O)c(=O)oc2cc1O`, the Activity in data set [1] was determined as 86.5%. Besides, the “inhibition (INH)” value in data set [2] is reported as “Active”. The Time in data set [3] is 2.92 min.
Turning to `O=C(NCCc1ccc(O)cc1)c1cc2ccccc2oc1=O`, the Activity in data set [1] stood at 76.4%. In data set [2], the “inhibition (INH)” value is on record as “Not Active”. Besides, the Time in data set [3] is reported as 1.28 min.
Take `O=C(O)c1cc2ccccc2oc1=O` [COUMARIN-3-CARBOXYLIC ACID]: in data set [1], the Activity is on record as 82.6%. Besides, the “inhibition (INH)” value in data set [2] was “Active”.
The like results for `O=C(NCCc1ccccc1)c1cc2ccc(O)cc2oc1=O` were, in that order, 75.3% and “Not Active”.
The like results for `O=C(NCCc1ccc(O)cc1)c1cc2ccc(O)cc2oc1=O` were, in that order, 71.5% and “Not Active”.
As to `COc1cc2cc(C(=O)NCCc3ccc(O)cc3)c(=O)oc2cc1O`, the Activity in data set [1] stood at 68.1%. In addition, the “inhibition (INH)” value in data set [2] is on record as “Not Active”. In addition, the Time in data set [3] turned out to be 7.43 min.
The like results for `O=C(O)c1cc2ccc(O)cc2oc1=O` were, in that order, 78.8%, “Active” and 0.82 min.
Turning to `COc1cc2cc(C(=O)NCCc3ccccc3)c(=O)oc2cc1O`, in data set [1], the Activity is given as 73.6%. For the same compound, in data set [2], the “inhibition (INH)” value is on record as “Not Active”. The Time in data set [3] is reported as 1.61 min.
As for `O=C(NCCc1ccccc1)c1cc2ccccc2oc1=O`, the Activity in data set [1] amounted to 72.9%. Besides, the “inhibition (INH)” value in data set [2] is listed as “Active”.
